Assay results from ChEMBL document CHEMBL1201862, “PubChem BioAssay data set” (2004).
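Values below derive from 48-hour exposures of cells grown in 96-well plates, with endpoints linearly interpolated between the two concentrations bracketing the appropriate inhibition level. GI50: concentration for 50% inhibition of growth.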 Activity calls are given as the source filed them. No stated cut-off is given here; in the data, active = GI50 up to about 1.1 µM and inactive = higher.

Assays:
Experiment in all cases: growth of human tumour cells (NCI), 48 h
A549 = tested on: A549
CAKI-1 = tested on: CAKI-1
COLO 205 = tested on: COLO 205
HCT-116 = tested on: HCT-116
HOP-62 = tested on: HOP-62
KM12 = tested on: KM12
LOX IMVI = tested on: LOX IMVI
MCF7 = tested on: MCF7
MDA-MB-435 = tested on: MDA-MB-435
NCI-H522 = tested on: NCI-H522
NCI/ADR-RES = tested on: NCI/ADR-RES
OVCAR-5 = tested on: OVCAR-5
RPMI-8226 = tested on: RPMI-8226
SF-268 = tested on: SF-268
SK-MEL-2 = tested on: SK-MEL-2
SW-620 = tested on: SW-620
UACC-257 = tested on: UACC-257
MOLT-4 = tested on: MOLT-4
OVCAR-3 = tested on: OVCAR-3
SR = tested on: SR

Row | Structure (SMILES) | GI50 (A549) | GI50 (CAKI-1) | GI50 (COLO 205) | GI50 (HCT-116) | GI50 (HOP-62) | GI50 (KM12) | GI50 (LOX IMVI) | GI50 (MCF7) | GI50 (MDA-MB-435) | GI50 (NCI-H522) | GI50 (NCI/ADR-RES) | GI50 (OVCAR-5) | GI50 (RPMI-8226) | GI50 (SF-268) | GI50 (SK-MEL-2) | GI50 (SW-620) | GI50 (UACC-257) | GI50 (MOLT-4) | GI50 (OVCAR-3) | GI50 (SR)
1 | CC(C)C1OC(N)=C(C#N)C1(C#N)C#N (stereo not drawn) | > 100 µM (inactive) | 3.79 µM (inactive) | 18.2 µM (inactive) | 26.3 µM (inactive) | 44.4 µM (inactive) | > 100 µM (inactive) | 28.1 µM (inactive) | 69.7 µM (inactive) | 29.6 µM (inactive) | 34.6 µM (inactive) | 58.1 µM (inactive) | > 100 µM (inactive) | 29 µM (inactive) | 44.2 µM (inactive) | > 100 µM (inactive) | 14.3 µM (inactive) | 17.1 µM (inactive) |  |  | 
2 | COc1ccc(N(CN2C(=O)CCC2C(=O)O)C(C)=O)cc1 (stereo not drawn) | > 100 µM (inactive) | > 100 µM (inactive) | > 100 µM (inactive) | > 100 µM (inactive) | > 100 µM (inactive) | > 100 µM (inactive) | > 100 µM (inactive) | > 100 µM (inactive) | > 100 µM (inactive) | > 100 µM (inactive) | > 100 µM (inactive) | > 100 µM (inactive) | > 100 µM (inactive) | > 100 µM (inactive) | > 100 µM (inactive) | > 100 µM (inactive) | > 100 µM (inactive) | 65.5 µM (inactive) | > 100 µM (inactive) | 
3 | COc1ccc2nccc(SCC(=O)O)c2c1 | > 100 µM (inactive) | > 100 µM (inactive) |  | > 100 µM (inactive) | > 100 µM (inactive) | > 100 µM (inactive) | > 100 µM (inactive) |  | > 100 µM (inactive) | > 100 µM (inactive) | > 100 µM (inactive) | > 100 µM (inactive) | > 100 µM (inactive) | > 100 µM (inactive) | > 100 µM (inactive) | > 100 µM (inactive) | > 100 µM (inactive) | > 100 µM (inactive) | > 100 µM (inactive) | > 100 µM (inactive)
4 | COc1cc(/C=C2/C(=O)N(C(=O)c3ccccc3O)N=C2C)cc(OC)c1OC | 0.439 µM (active) |  | 34.4 µM (inactive) | 0.358 µM (active) | 1.29 µM (inactive) | 0.455 µM (active) | 2.09 µM (inactive) | 0.753 µM (active) | 0.863 µM (active) | 3.83 µM (inactive) | 4.29 µM (inactive) | 11.7 µM (inactive) | > 22.2 µM (inactive) | 8.59 µM (inactive) | 1.44 µM (inactive) | 6.22 µM (inactive) | 4.9 µM (inactive) | 0.887 µM (active) | 1.53 µM (inactive) | 
5 | CC1=C(C)SC(=C2Sc3c(n(C)c(=O)n(C)c3=O)S2)S1 | 42.5 µM (inactive) | 64.3 µM (inactive) | 89.9 µM (inactive) | 10.7 µM (inactive) | 18.7 µM (inactive) | > 100 µM (inactive) | 48.5 µM (inactive) | > 100 µM (inactive) | 98.6 µM (inactive) | 57.3 µM (inactive) | 55.3 µM (inactive) | > 100 µM (inactive) | > 100 µM (inactive) | 43.8 µM (inactive) | 22.3 µM (inactive) | > 100 µM (inactive) | > 100 µM (inactive) | > 100 µM (inactive) | 71.3 µM (inactive) | 
6 | CC1(C)S[C@@H]2[C@H](N3C(=O)c4ccccc4C3=O)CN2[C@H]1NC(=O)N[C@@H]1N2C[C@@H](N3C(=O)c4ccccc4C3=O)[C@H]2SC1(C)C | 73.3 µM (inactive) | > 100 µM (inactive) | > 100 µM (inactive) | > 100 µM (inactive) | 48.8 µM (inactive) | > 100 µM (inactive) | > 100 µM (inactive) | > 100 µM (inactive) | > 100 µM (inactive) | > 100 µM (inactive) | > 100 µM (inactive) | > 100 µM (inactive) | > 100 µM (inactive) | 28.9 µM (inactive) | > 100 µM (inactive) | > 100 µM (inactive) |  | > 100 µM (inactive) | > 100 µM (inactive) | 
7 | O=C1/C(=C/c2ccccc2S)N=C(c2ccccc2)N1c1nc2ccc(Sc3ccccc3)cc2[nH]1 | 36.6 µM (inactive) | 34.1 µM (inactive) | 20.4 µM (inactive) | 33.4 µM (inactive) | 41.9 µM (inactive) | 27.6 µM (inactive) | 34 µM (inactive) | 27 µM (inactive) | 12.4 µM (inactive) | 22.8 µM (inactive) | 22 µM (inactive) | 32.4 µM (inactive) | 23.9 µM (inactive) | 38.3 µM (inactive) | 17.8 µM (inactive) | 29.9 µM (inactive) | 23.6 µM (inactive) | 35.4 µM (inactive) | 21.6 µM (inactive) | 
